pIC50: −log10 of the molar value.
Each molecule was assayed against human ATX (Homo sapiens (Human), UniProt Q13822) (assay: Human ATX enzyme inhibition assay (fluorescence quenching, MR121 substrate)). Conditions: human His-tagged ATX 30 nM, MR121 substrate 1 μM, 30° C.
Type: biochemical
Experimental: Human ATX Enzyme Inhibition Assay
ATX inhibition was measured by a fluorescence quenching assay using a specifically labeled substrate analogue (MR121 substrate). To obtain this MR121 substrate, BOC and TBS protected 6-amino-hexanoic acid (R)-3-({2-[3-(2-{2-[2-(2-amino-ethoxy)-ethoxy]-ethoxy}-ethoxy)-propionylamino]-ethoxy}-hydroxy-phosphoryloxy)-2-hydroxy-propyl ester (Ferguson et al., Org Lett 2006, 8 (10), 2023) was labeled with MR121 fluorophore (CAS 185308-24-1, 1-(3-carboxypropyl)-11-ethyl-1,2,3,4,8,9,10,11-octahydro-dipyrido[3,2-b:2′,3′-i]phenoxazin-13-ium) on the free amine of the ethanolamine side and then, after deprotection, subsequently with tryptophan on the side of the aminohexanoic acid.
Assay working solutions were made as follows:
Assay buffer (50 mM Tris-HCl, 140 mM NaCl, 5 mM KCl, 1 mM CaCl2, 1 mM MgCl2, 0.01% Triton-X-100, pH 8.0;
ATX solution: ATX (human His-tagged) stock solution (1.08 mg/mL in 20 mM bicine, pH 8.5, 0.15 M NaCl, 10% glycerol, 0.3% CHAPS, 0.02% NaN3), diluted to 1.4-2.5× final concentration in assay buffer;
MR121 substrate solution: MR121 substrate stock solution (800 μM MR121 substrate in DMSO), diluted to 2-5× final concentration in assay buffer.
Test compounds (10 mM stock in DMSO, 8 μL) were obtained in 384 well sample plates (Corning Costar #3655) and diluted with 8 μL DMSO. Row-wise serial dilutions were made by transferring 8 μL cpd solution to the next row up to row O. The compound and control solutions were mixed five times and 2 μL were transferred to 384 well assay plates (Corning Costar #3702). Then, 15 μL of 41.7 nM ATX solution was added (30 nM final concentration), mixed five times and then incubated for 15 minutes at 30° C. 10 μL of MR121 substrate solution was added (1 μM final concentration), mixed 30 times and then incubated for 15 minutes at 30° C.

pIC50	Compound
7.74	COCCNC(=O)c1cccc(-c2cc(Cl)c(C)cc2OCc2n[nH]c3ncccc23)c1 [Example D16]
9.00	COc1cccc(-c2cc(C#N)c(Cl)cc2OCc2n[nH]c(=O)n2C)c1F [Example B88]
8.70	Cc1cc(OCc2n[nH]c(=O)n2C)c(C(C)(C)C)cc1Cl [Example A1, 3-[(2-tert-Butyl-4-chloro-5-methylphenoxy)methyl]-4-methyl-1H-1,2,4-triazol-5-one]
7.31	Cc1cc(OCc2n[nH]c(=O)n2C)c(-c2cc(C#N)ccc2OC(F)(F)F)cc1Cl [Example B86]
8.40	CC(C)Oc1ccc(F)c(-c2cc(C#N)c(Cl)cc2OCc2n[nH]c(=O)n2C)c1 [Example B89]
8.00	Cc1cc(OCc2n[nH]c3nc(N4CC(O)C4)ncc23)c(C(C)(C)C)cc1Cl [Example D29]
8.52	N#Cc1cc(-c2ccccc2)c(OCc2ccc(=O)[nH]n2)cc1Cl [Example C12]
7.34	Cc1cc(OCc2ccc(=O)[nH]n2)c(C(C)(C)C#N)cc1Cl [Example C9, 2-[5-chloro-4-methyl-2-[(6-oxo-1H-pyridazin-3-yl)methoxy]phenyl]-2-methylpropanenitrile]
7.89	Cc1cc(OCc2n[nH]c(=O)n2C)c(-c2cc(C(=O)N3CCN(C)C(=O)C3)ccc2F)cc1Cl [Example B65]
7.60	COc1ccc(C(F)(F)F)cc1-c1cc(Cl)c(C)cc1OCc1n[nH]c(=O)n1C [Example B59]
7.57	Cc1cc(OCc2cc[nH]n2)c(C(C)(C)C)cc1Cl [Example F1, 3-((2-tert-Butyl-4-chloro-5-methylphenoxy)methyl)-1H-pyrazole]
8.05	Cc1cc(OCc2n[nH]c3ncccc23)c(C(C)(C)C)cc1C#N [Example D4]
8.10	Cc1cc(OCc2n[nH]c3nc(N(C)CC(O)CO)ncc23)c(C(C)(C)C)cc1Cl (stereo not drawn) [Example D27]
7.77	CC(=O)N1CCc2c(COc3cc(C)c(Cl)cc3C(C)(C)C)n[nH]c2C1 [Example E5, 1-(3-((2-tert-Butyl-4-chloro-5-methylphenoxy)methyl)-4,5-dihydro-1H-pyrazolo[3,4-c]pyridin-6(7H)-yl)ethanone]
7.60	Cn1c(COc2ccc(C#N)cc2-c2ccccc2)n[nH]c1=O [Example B16]
7.49	COc1ncccc1-c1cc(Cl)c(C)cc1OCc1ccc(=O)[nH]n1 [Example C10]
6.76	Cn1c(COc2cc(C#N)c(Cl)cc2C2CC2)n[nH]c1=O [Example A22]
8.22	Cc1cc(OCc2n[nH]c3nc(OCC(O)CO)ncc23)c(C(C)(C)C)cc1C#N (stereo not drawn) [Example D37, 5-tert-Butyl-4-[[6-(2,3-dihydroxypropoxy)-1H-pyrazolo[3,4-d]pyrimidin-3-yl]methoxy]-2-methylbenzonitrile]
6.67	Cc1cc(OCc2n[nH]c(=O)n2C)c(-c2ncccn2)cc1Cl [Example B23, 3-[(4-Chloro-5-methyl-2-pyrimidin-2-yl-phenoxy)methyl]-4-methyl-1H-1,2,4-triazol-5-one]
8.30	Cc1cc(OCc2n[nH]c(=O)n2C)c(C(C)(C)C)cc1C#N [Example A16]
7.85	Cc1cc(OCc2n[nH]c3nc(N(C)CCO)ncc23)c(C(C)(C)C)cc1Cl [Example D26, 2-[[3-[(2-tert-Butyl-4-chloro-5-methylphenoxy)methyl]-1H-pyrazolo[3,4-d]pyrimidin-6-yl]-methylamino]ethanol]
8.30	Cc1cc(OCc2ccc(=O)[nH]n2)c(C(C)(C)C)cc1Cl [Example C8, 3-[(2-tert-butyl-4-chloro-5-methylphenoxy)methyl]-1H-pyridazin-6-one]
8.15	Cc1cc(OCc2n[nH]c(=O)n2C)c(-c2cc(C(=O)N(C)Cc3cccs3)ccc2F)cc1Cl [Example B68]
6.78	Cc1cc(OCc2n[nH]c(=O)n2C)c(-c2cccc(C(N)=O)c2)cc1Cl [Example B11]
7.46	Cc1cc(C(C)(C)C)c(OCc2n[nH]c(=O)n2C)cc1C#N [Example A17]
6.31	Cc1cc(OCc2n[nH]c(=O)n2C)c(-c2cnco2)cc1Cl [Example B26]
7.40	Cn1c(COc2cc(Cl)c(C#N)cc2-c2cccc(C(=O)N3CCOCC3)c2)n[nH]c1=O [Example B41]

pIC50	Compound
8.10	Cc1cc(OCc2n[nH]c(=O)n2C)c(-c2cc(C(=O)N(C)C)ccc2F)cc1Cl [Example B38]
7.82	COCC(=O)N1CCc2c(COc3cc(C)c(Cl)cc3C(C)(C)C)n[nH]c2C1 [Example E6, 1-(3-((2-tert-Butyl-4-chloro-5-methylphenoxy)methyl)-4,5-dihydro-1H-pyrazolo[3,4-c]pyridin-6(7H)-yl)-2-methoxyethanone]
6.90	Cc1cc(OCc2n[nH]c(=O)n2C)c(-c2cc(C(F)(F)F)nn2C)cc1Cl [Example B24, 3-[[4-Chloro-5-methyl-2-[2-methyl-5-(trifluoromethyl)pyrazol-3-yl]phenoxy]methyl]4-methyl-1H-1,2,4-triazol-5-one]
5.72	Cn1c(COc2cc(S(C)(=O)=O)c(Cl)cc2C2CC2)n[nH]c1=O [Example A14]
7.82	CC(C)c1cc(C#N)ccc1OCc1n[nH]c(=O)n1C [Example A11]
7.92	Cc1cc(OCc2n[nH]c3nc(NCCO)ccc23)c(C(C)(C)C)cc1Cl [Example D7, 2-[[3-[(2-tert-Buty-4-chloro-&-methylphenoxy)methyl]-1H-pyrazolo[3,4-b]pyridin-6-yl]amino]ethanol]
8.30	Cn1c(COc2cc(Cl)c(C#N)cc2-c2cc(F)ccc2F)n[nH]c1=O [Example B94]
8.15	Cc1cc(OCc2n[nH]c3ccccc23)c(-c2cc(C(=O)N3CCN(C)C(=O)C3)ccc2F)cc1Cl [Example D41]
7.38	COc1ncccc1-c1cc(Cl)c(C)cc1OCc1n[nH]c(=O)n1C [Example B53]
8.40	Cc1cc(OCc2n[nH]c(=O)n2C)c(-c2cc(C(=O)N(C)CC3CC3)ccc2F)cc1Cl [Example B70]
7.80	COCCNC(=O)c1cccc(-c2cc(Cl)c(C)cc2OCc2n[nH]c(=O)n2C)c1 [Example B17]
9.00	Cc1cc(OCc2n[nH]c(=O)n2C)c(-c2ccccc2Cl)cc1Cl [Example B2]
7.96	COc1ccc(C(C)C)cc1-c1cc(Cl)c(C)cc1OCc1n[nH]c(=O)n1C [Example B60]
7.68	Cc1cc(OCc2n[nH]c3cccnc23)c(C(C)(C)C)cc1Cl [Example D23]
7.89	CN(CCO)c1ccc2c(COc3cc(F)c(Cl)cc3C(C)(C)C)n[nH]c2n1 [Example D14]
7.55	N#Cc1cc(-c2cc(OC(F)(F)F)ccc2F)c(OCc2n[nH]c3ccncc23)cc1Cl [Example D54]
6.94	CNC(=O)c1cccc(-c2cc(C#N)c(Cl)cc2OCc2n[nH]c(=O)n2C)c1 [Example B33]
7.11	Cc1cc(OCc2n[nH]c(=O)n2C)c(-c2ncco2)cc1Cl [Example B29, 3-[[4-Chloro-5-methyl-2-(1,3-oxazol-2-yl)phenoxy]methyl]-4-methyl-1H-1,2,4-triazol-5-one]
7.16	COc1ncccc1-c1cc(Cl)c(C)cc1OCc1n[nH]c2c1CCN(C(C)=O)C2 [Example E8, 1-(3-((4-Chloro-2-(2-methoxypyridin-3-yl)-5-methylphenoxy)methyl)-4,5-dihydro-1H-pyrazolo[3,4-c]pyridin-6(7H)-yl)ethanone]
7.77	Cc1cc(OCc2n[nH]c(=O)n2C)c(-c2cc(C(=O)N(C)C)ccc2C)cc1Cl [Example B51, 3-[5-Chloro-4-methyl-2-[(4-methyl-5-oxo-1H-1,2,4-triazol-3-yl)methoxy]phenyl]-N,N,4-trimethylbenzamide]
8.22	Cc1cc(OCc2n[nH]c(=O)n2C)c(-c2cccc(C(=O)Nc3ccccc3)c2)cc1Cl [Example B13]
9.00	Cc1cc(OCc2n[nH]c(=O)n2C)c(C(C)C)cc1C#N [Example A12]
8.52	Cc1cc(OCc2n[nH]c(=O)n2C)c(-c2cc(CN3CCCC3=O)ccc2F)cc1Cl [Example B81]
7.72	Cc1cc(OCc2n[nH]c3c2CCNC3)c(C(C)(C)C)cc1Cl [Example E4, 3-((2-tert-Butyl-4-chloro-5-methylphenoxy)methyl)-4,5,6,7-tetrahydro-1H-pyrazolo[3,4-c]pyridine]
6.13	Cc1cc(OCc2n[nH]c3c2CN(C(=O)OC(C)(C)C)CC3)c(C(C)(C)C)cc1Cl [Example E1, tert-Butyl 3-((2-tert-butyl-4-chloro-5-methylphenoxy)methyl)-6,7-dihydro-1H-pyrazolo[4,3-c]pyridine-5(4H)-carboxylate]
8.05	COCCN(C)C(=O)c1ccc(F)c(-c2cc(Cl)c(C)cc2OCc2n[nH]c(=O)n2C)c1 [Example B73]
7.60	CC(C)c1cc2c(cc1OCc1n[nH]c(=O)n1C)C(C)(C)CC2 [Example A3]

— US11352330B2, “Phenoxymethyl derivatives” (Hoffmann-La Roche Inc., priority 2015, dated 2022)
